Source: US10005767B2, “Compositions and methods for inhibition of the JAK pathway” (Rigel Pharmaceuticals, Inc., priority 2009, dated 2018)
Counter-ions that a name gives are not always drawn.

Test system: human primary T-cells, IL-2 stimulated proliferation (JAK-1 and JAK-3 dependent; reported as JAK3 activity)
Assay: Human primary T-cell proliferation stimulated by IL-2 (Example 3)
Type: cell-based
Conditions: Homo sapiens, T-cell, tested under conditions described in Example 3 (IL-2 stimulated human primary T-cell proliferation); read-out: ability to inhibit JAK3 activity, IC50 range (Table V)
Procedure, shortened: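 Peripheral-blood human T-cells pre-activated via TCR/CD28, IL-2-starved overnight, then cultured 72 h at 37 °C with compound in Yssel's medium containing IL-2 (80 U/mL in cell suspension). Proliferation read as viable-cell ATP by CellTiter-Glo luminescence; reduction versus control taken as JAK pathway inhibition.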

SMILES	IC50 [nM]
COc1ccc(C(F)(F)F)cc1Nc1ncc(C)c(Nc2ccc3oc(=O)[nH]c3c2)n1 [Compound I-498, 5-[2-(2-Methoxy-5-trifluoromethyl-phenylamino)-5-methyl-pyrimidin-4-ylamino]-3H-benzooxazol-2-one]	500 to 5000
COc1cc(Nc2ncc(C)c(Nc3ccc4oc(=O)[nH]c4c3)n2)cc(C(=O)N2CCCC2)c1 [Compound I-253, 5-(2-(3-methoxy-5-(pyrrolidine-1-carbonyl)phenylamino)-5-methylpyrimidin-4-ylamino)benzo[d]oxazol-2(3H)-one]	> 10000
CCc1ccc(Nc2ncc(C)c(Nc3ccc4oc(=O)[nH]c4c3)n2)cc1 [Compound I-504, 5-(2-(4-ethylphenylamino)-5-methylpyrimidin-4-ylamino)benzo[d]oxazol-2(3H)-one]	< 500
Cc1cnc(Nc2cnc(N3CC4CCC(C3)N4C(=O)C(F)(F)F)c(C)c2)nc1Nc1ccc2oc(=O)[nH]c2c1 [II-63, 5-(5-methyl-2-(5-methyl-6-(8-(2,2,2-trifluoroacetyl)-3,8-diaza-bicyclo[3.2.1]octan-3-yl)pyridin-3-ylamino)pyrimidin-4-ylamino)benzo[d]oxazol-2(3H)-one]	< 500
Cc1cnc(Nc2cc(C)c(F)c(C)c2)nc1Nc1cc(C)c2oc(=O)[nH]c2c1 [Compound I-476, 5-(2-(4-fluoro-3,5-dimethylphenylamino)-5-methylpyrimidin-4-ylamino)-7-methylbenzo[d]oxazol-2(3H)-one]	> 10000
Cc1cnc(Nc2cnc(N3C[C@@H]4C[C@H]3CN4C)c(C#N)c2)nc1Nc1ccc2oc(=O)[nH]c2c1 [II-115, N4-(benzo[d]oxazolin-2(3H)-one-5-yl)-N2-[3-cyano-2-((1S,4S)-5-methyl-2,5-diazabicyclo[2.2.1]heptan-2-yl)pyridine-5-yl]-5-methyl-2,4-pyrimidinediamine]	< 500
Cc1ccc(Nc2ncc(C)c(Nc3ccc4oc(=O)[nH]c4c3)n2)cc1S(C)(=O)=O [Compound I-239, 5-(5-methyl-2-(4-methyl-3-(methylsulfonyl)phenylamino)pyrimidin-4-ylamino)benzo[d]oxazol-2(3H)-one]	< 500
Cc1cnc(Nc2ccc(OCC3CCC3)cc2)nc1Nc1ccc2oc(=O)[nH]c2c1 [Compound I-195, 5-[2-(4-Cyclobutylmethoxy-phenylamino)-5-methyl-pyrimidin-4-ylamino]-3H-benzooxazol-2-one]	< 500
CCc1ccccc1Nc1ncc(C)c(Nc2ccc3oc(=O)[nH]c3c2)n1 [Compound I-502, 5-(2-(2-ethylphenylamino)-5-methylpyrimidin-4-ylamino)benzo[d]oxazol-2(3H)-one]	500 to 5000
Cc1cnc(Nc2ccc(N3CCOCC3)nc2)nc1Nc1cc(F)c2oc(=O)[nH]c2c1 [II-76, 7-fluoro-5-(5-methyl-2-(6-morpholinopyridin-3-ylamino)pyrimidin-4-ylamino)benzo[d]oxazol-2(3H)-one]	< 500
Cc1cnc(Nc2ccc(N3CCN(C)CC3)nc2)nc1Nc1ccc2oc(=O)n(C)c2c1 [II-22, N2-(6-(4-methylpiperazin-1-yl)pyridin-3-yl)-N4-(3-methyl-2-oxo-2,3-dihydrobenzo[d]oxazol-5-yl)-5-methylpyrimidine-2,4-diamine]	< 500
Cc1cnc(Nc2cccc(F)c2F)nc1Nc1ccc2oc(=O)[nH]c2c1 [Compound I-467, 5-[2-(2,3-Difluoro-phenylamino)-5-methyl-pyrimidin-4-ylamino]-3H-benzooxazol-2-one]	< 500
Cc1cnc(Nc2ccc(-c3ccncc3)c(F)c2)nc1Nc1ccc2oc(=O)[nH]c2c1 [Compound I-484, 5-(2-(3-fluoro-4-(pyridin-4-yl)phenylamino)-5-methylpyrimidin-4-ylamino)benzo[d]oxazol-2(3H)-one]	500 to 5000
Cc1cnc(Nc2ccc(N(C)[C@@H]3CCCNC3)nc2)nc1Nc1ccc2oc(=O)[nH]c2c1 [II-108, (R)-5-(5-methyl-2-(6-(methyl(piperidin-3-yl)amino)pyridin-3-ylamino)pyrimidin-4-ylamino)benzo[d]oxazol-2(3H)-one]	< 500
Cc1cnc(Nc2cc(F)cc(F)c2F)nc1Nc1ccc2oc(=O)[nH]c2c1 [Compound I-480, 5-[5-Methyl-2-(2,3,5-trifluoro-phenylamino)-pyrimidin-4-ylamino]-3H-benzooxazol-2-one]	> 10000
CCCNC(C)c1cc(Nc2ncc(C)c(Nc3ccc4oc(=O)[nH]c4c3)n2)cc(OC)c1 (stereo not drawn) [Compound I-232, 5-(2-(3-methoxy-5-(1-(propylamino)ethyl)phenylamino)-5-methylpyrimidin-4-ylamino)benzo[d]oxazol-2(3H)-one]	< 500
Cc1cnc(Nc2ccc3c(c2)C(=O)N(C)C/C=C\C3)nc1Nc1ccc2oc(=O)[nH]c2c1 [IV-10, (Z)-2-Methyl-9-[5-methyl-4-(2-oxo-2,3-dihydro-benzooxazol-5-ylamino)-pyrimidin-2-ylamino]-3,6-dihydro-2H-benzo[c]azocin-1-one]	< 500
COc1cc(Nc2ncc(C)c(Nc3ccc4oc(=O)[nH]c4c3)n2)ccc1-c1cccnc1 [Compound I-506, 5-(2-(3-methoxy-4-(pyridin-3-yl)phenylamino)-5-methylpyrimidin-4-ylamino)benzo[d]oxazol-2(3H)-one formate salt]	< 500
CC(=O)c1cc(Nc2ncc(C)c(Nc3ccc4oc(=O)[nH]c4c3)n2)cc(C(F)(F)F)c1 [Compound I-445, 5-(2-(3-acetyl-5-(trifluoromethyl)phenylamino)-5-methylpyrimidin-4-ylamino)benzo[d]oxazol-2(3H)-one]	< 500

Same assay, conditions: tested under conditions described in Example 3 (IL-2 stimulated human primary T-cell proliferation); read-out: ability to inhibit JAK3 activity, IC50 range (Table V)

SMILES	IC50 [nM]
CC(=O)N1CCN(c2cccc(Nc3ncc(C)c(Nc4ccc5oc(=O)[nH]c5c4)n3)c2)CC1 [Compound I-345, N2-[3-(4-acetyl)piperazino]phenyl-5-methyl-N4-(2-oxo-2,3-dihydro-1,3-benzoxazol-5-yl)-2,4-pyrimidinediamine]	< 500
Cc1cnc(Nc2cccc(OCC(=O)N(C)C)c2)nc1Nc1ccc2oc(=O)[nH]c2c1 [Compound I-326, N2-(3-dimethylaminocarbonylmethoxy)phenyl-5-methyl-N4-(2-oxo-2,3-dihydro-1,3-benzoxazol-5-yl)-2,4-pyrimidinediamine]	< 500
Cc1cnc(Nc2ccc3c(c2)OC2(CCCCC2)O3)nc1Nc1ccc2oc(=O)[nH]c2c1 [IV-39, N2-[spiro(2,1′-cyclohexan)-1,3-benzodioxol-5-yl]-5-methyl-N4-(2-oxo-2,3-dihydro-1,3-benzoxazol-5-yl)-2,4-pyrimidinediamine]	< 500
Cc1cnc(Nc2cccc(S(C)(=O)=O)c2)nc1Nc1ccc2c(c1)oc(=O)n2C [Compound I-65, N2-((3-methylsulfonyl)phenyl)-N4-(3-methyl-2-oxo-2,3-dihydrobenzo[d]oxazol-6-yl)-5-methylpyrimidine-2,4-diamine]	< 500
Cc1ccc(Nc2ncc(C)c(Nc3ccc4c(c3)oc(=O)n4C)n2)cc1NS(C)(=O)=O [Compound I-83, N2-((3-methylsulfonylamino-4-methyl)phenyl)-N4-(3-methyl-2-oxo-2,3-dihydrobenzo[d]oxazol-6-yl)-5-methylpyrimidine-2,4-diamine]	< 500
CCN1CCN(c2ccc(Nc3ncc(C)c(Nc4ccc5oc(=O)[nH]c5c4)n3)cc2Cl)CC1 [Compound I-278, N2-[3-chloro-4-(4-ethylpiperazino)]phenyl-5-methyl-N4-(2-oxo-2,3-dihydro-1,3-benzoxazol-5-yl)-2,4-pyrimidinediamine]	< 500
COc1ccc(Nc2ncc(C)c(Nc3ccc4oc(=O)[nH]c4c3)n2)cc1OCC(=O)NC1CC1 [Compound I-293, N2-[3-(cyclopropylaminocarbonylmethoxy)-4-methoxy]phenyl-5-methyl-N4-(2-oxo-2,3-dihydro-1,3-benzoxazol-5-yl)-2,4-pyrimidinediamine]	< 500
COCCOc1ccc(Nc2ncc(C)c(Nc3ccc4oc(=O)[nH]c4c3)n2)cn1 [II-145, N2-[2-(2-methoxy)ethoxypyridin-5-yl]-5-methyl-N4-(2-oxo-2,3-dihydro-1,3-benzoxazol-5-yl)-2,4-pyrimidinediamine]	< 500
Cc1cnc(Nc2ccc(NS(C)(=O)=O)cc2)nc1Nc1ccc2c(c1)oc(=O)n2C [Compound I-74, N2-((4-methylsulfonylamino)phenyl)-N4-(3-methyl-2-oxo-2,3-dihydrobenzo[d]oxazol-6-yl)-5-methylpyrimidine-2,4-diamine]	< 500
Cc1cnc(Nc2ccc(C#N)c(OC(F)F)c2)nc1Nc1ccc2oc(=O)[nH]c2c1 [Compound I-434, N2-(4-cyano-3-difluoromethoxy)phenyl-5-methyl-N4-(2-oxo-2,3-dihydro-1,3-benzoxazol-5-yl)-2,4-pyrimidinediamine]	< 500
Cc1ccc(Nc2ncc(C)c(Nc3ccc4oc(=O)[nH]c4c3)n2)cc1OC(C)(C)C#N [Compound I-397, N2-[3-(1-cyano-1-methyl)ethoxy-4-methyl]phenyl-5-methyl-N4-(2-oxo-2,3-dihydro-1,3-benzoxazol-5-yl)-2,4-pyrimidinediamine]	< 500
COCCCOc1ccc(Nc2ncc(C)c(Nc3ccc4oc(=O)[nH]c4c3)n2)cn1 [II-149, N2-[2-(3-methoxy)propoxypyridin-5-yl]-5-methyl-N4-(2-oxo-2,3-dihydro-1,3-benzoxazol-5-yl)-2,4-pyrimidinediamine]	< 500
CCOc1cc(Nc2ncc(C)c(Nc3ccc4oc(=O)[nH]c4c3)n2)ccc1OC(F)F [Compound I-313, N2-(4-difluoromethoxy-3-ethoxy)phenyl-5-methyl-N4-(2-oxo-2,3-dihydro-1,3-benzoxazol-5-yl)-2,4-pyrimidinediamine]	< 500
COc1cc(Nc2ncc(C)c(Nc3ccc4oc(=O)[nH]c4c3)n2)cc(OC)c1OC [Compound I-119, N4-(benzo[d]oxazol-2(3H)-on-5-yl)-N2-(3,4,5-trimethoxy)phenyl-5-methylpyrimidine-2,4-diamine]	< 500
